Measured values published in patent US20120190745A1, “ORAL COMPOSITION FOR REDUCING WRINKLE FORMATION” (SHISEIDO COMPANY. LTD., priority 2009, published 2012).

Key:
tape-stripped mice [1] = assay: Wrinkle formation caused by tape stripping method; assay type: in vivo, HR-1 hairless mice; details: 10 mM in drinking water for four weeks, score 0-8 per Table 1, control 3.5, p<1%
Protocol: (§1) Five-week old male HR-1 hairless mice (Hoshino Laboratory Animals, Inc.) were subjected to the experiment.
(§2) Drinking water containing 10 mM D-glutamic acid was given via a water supplying bottle for four weeks. The negative control employed was drinking water containing no D-glutamic acid.
(§3) For the purpose of forming a wrinkle, a tape stripping method was conducted three times a week starting on five days after the initiation of the D-glutamic acid administration according to the method by Matsunaga et al. (Matsunaga, Y. et al., Br. J. Dermatol., 156:884 (2007)). Briefly, a 24-mm width cellophane tape (Cellotape (trade mark), Nichiban Co., Ltd.) cut in a length suited to the dorsal length of a hairless mouse (HR-1 strain; Hoshino Laboratory Animals, Inc., Tokyo) was adhered evenly over the entire dorsal area and then peeled off. […] For example when a non-treated hairless mouse was subjected to the adhesion/peeling off cycle procedures, the first treatment involved four cycles, and the second and third treatments involved each five to six cycles and the treatment in the second week and later involved six to eight cycles, whereby increasing the quantity of the horny layer water loss to about to 8 mg/cm^2/h. […]

[2] = tested on: mice irradiated with ultraviolet rays; assay: Wrinkle formation caused by UV irradiation; assay type: in vivo, Skh-1 hairless mice; details: 10 mM in drinking water for four weeks; UV-B three times a week, total 1.4 J/cm^2; score 0-8 per Table 1; control 4.9; p<1%
Protocol: Four weeks after the initiation of the D-glutamic acid administration, the dorsal areas of the mice were photographed, and a partly modified method by Bissett et al. (Bissett, D. L. et al., Photochemistry and Photobiology, 46:367(1987)) was employed to evaluate the degree of wrinkle formation in accordance with the judgment criteria indicated in Table 1 shown below.
(§4) Six week-old Skh-1 hairless mice (male) were employed.
as §2
(§5) UV irradiation was conducted employing a partly modified method by Schwarz et al. (Haratake, A. et al., J. Invest. Dermatol. 108:769 (1997)) in accordance with the repetitive UV-B irradiation method (Naganuma, M. et al., J. Dermatol.Sci.25:29 (2001), Schwartz, E. J., Invest. Dermatol. 91:158 (1988)). Thus, the dorsal area was irradiated with UV-B(light source: Toshiba FL-20 SE fluorescent lamp manufactured by Toshiba Electric) three times a week for four weeks. The total irradiation dose was 1.4 J/cm^2. The UV dose measured with UVRADIOMETER (UVR-305/365D(II), Topcon Corporation) was employed as a readout.
The wrinkle formation was evaluated by a method similar to that in Example 1.

tape-stripped mice [3] = assay: Skin thickening caused by tape stripping method; assay type: in vivo, HR-1 hairless mice; details: 10 mM in drinking water for four weeks; tape stripping three times a week; negative control 1.2; p<0.1%
Protocol: as §1, §2
as §3, with “(2007)).” for “(2007)). Briefly, a 24-mm width cellophane tape (Cellotape (trade mark), Nichiban Co., Ltd.) cut in a length suited to the dorsal length of a hairless mouse (HR-1 strain; Hoshino Laboratory Animals, Inc., Tokyo) was adhered evenly over the entire dorsal area and then peeled off.”
Four weeks after the initiation of the D-glutamic acid administration, the skin thickness was measured using a thickness gauge. The measured value of the skin thickness represented as “skin thickness×2”, since the measurement was conducted by calipering the skin with the thickness gauge.

[4] = tested on: mice irradiated with ultraviolet rays; assay: Transepidermal water loss (skin barrier function) in mice irradiated with ultraviolet rays; assay type: in vivo, Skh-1 hairless mice; details: 10 mM in drinking water for four weeks; UV-B three times a week, total 1.4 J/cm^2; control 16
Protocol: as §4, §2, §5
Four weeks after the initiation of the D-glutamic acid administration, the quantity of the transepidermal water loss was measured according to a standard method.

N[C@H](CCC(=O)O)C(=O)O [D-glutamic acid]
wrinkle score (tape-stripped mice [1]): 1.5 | wrinkle score [2]: 3.3 | mean value of the skin thickness (skin thickness×2) (tape-stripped mice [3]): 1.05 | quantity of the transepidermal water loss [4]: 13
